# Literature values in patent US20180147141A1, “CHEWING GUM COMPOSITION COMPRISING CANNABINOIDS AND GABAPENTIN” (AXIM Biotechnologies, Inc., priority 2016, published 2018).
# Tested on: GABA receptors
# Conditions: at concentrations at or below 1 millimolar
compound,measurement,value
"NCC1(CC(=O)O)CCCCC1 [Gabapentin, 1-(aminomethyl)cyclohexaneacetic acid]",binding to GABA receptors,has not been shown to bind
